Series [1] deals with all tested bacteria (Gram-positive and Gram-negative). As to the kind of experiment: MIC / antimicrobial activity over the whole panel of tested bacteria.
The test system of series [2] is mammalian cells (HDF and HaCaT). As to the kind of experiment: Mammalian cell cytotoxicity (LDH and MTS), both cell populations. It counts as cell-based, human. How it is done:
(§1) Primary Human Dermal Fibroblast (HDFs) and Human Keratinocyte (HaCaT) cells were selected for cytotoxicity and proliferation testing. HDFs were cultured in high glucose, no glutamine, no phenol red, Dulbecco's Modified Eagle Medium (DMEM) (GIBCO™). HDF media was further supplemented with 10% heat-inactivated fetal bovine serum (GIBCO™), 1% L-glutamine (GIBCO™) and 1% Penicillin-streptomycin (GIBCO™). HaCaTs cells were cultured in high glucose, no glutamine, no calcium DMEM (GIBCO™) supplemented with 10% heat inactivated foetal bovine serum, 1% L-glutamine, 1% Penicillin-streptomycin 1 mM calcium chloride (Sigma) throughout.
Mammalian cell populations were maintained in standard culture conditions at 37° C., 5% CO2 and >95% relative humidity. […] Once complete, the pellet of cells was re-suspended in 10 mL warmed culture media and the number of cells per mL was determined using a hemocytometer counting chamber. […]
(§2) The secretion of lactate dehydrogenase (LDH) enzyme was used for quantitatively measuring cell damage and cytotoxicity. As damage to the cell plasma membrane releases LDH into the cell culture media, the extracellular LDH in the media can be quantified by a coupled enzymatic reaction in which LDH catalyzes the conversion of lactate to pyruvate via NAD+ reduction to NADH. […]

A further series deals with S. aureus NRS 384. As to the kind of experiment: Mouse Staphylococcus aureus-induced wound infection model, bacteria load in wound site. The settings on record: 50 μL/wound site.
For series [3], the system named is Enterococcus faecalis EF19433. As to the kind of experiment: MIC, broth microdilution in MH broth with resazurin. The settings on record: for MIC EF19433: Table 17, modified Gompertz fit, only values marked ^ are reliable estimates, others unreliable. It counts as cell-based.
For series [4], the system named is Enterococcus faecalis EF51299. The series is described as above. It is filed as cell-based. The settings on record: for MIC EF51299: Table 17, modified Gompertz fit, only values marked ^ are reliable estimates, others unreliable.
Series [5] has as its system Staphylococcus aureus NRS384. The series is described as above. It counts as cell-based. The settings on record: Table 21 (Example 8); Staphylococcus aureus NRS384; read-out: MIC Concentration.
Series [6] concerns Staphylococcus aureus ATCC 29213. The description is as above. The settings on record: for MIC SA29213: Table 17, modified Gompertz fit, only values marked ^ are reliable estimates, others unreliable. It is filed as cell-based.
Series [7] has as its system Escherichia coli EC25922. The series can be described thus: MBC, spot plating after 24 h in MH broth. The settings on record: Table 18; —: no activity observed.
Protocol: (§5) To determine MBC compound concentrations breakpoints were estimated from MIC curves. Overnight cultures were set up as described above for all bacterial strains. The following day overnight cultures were adjusted to give a cell density of 5×10^5 cells per mL. Briefly, cultures were adjusted to the McFarland standard (0.08-0.12) and diluted (1:150). Adjusted cultures were inoculated into 96 well plates with 50 μL sterile Muller-Hinton broth (MHB) and 2 concentrations of each compound. […] MBC cultures were quantified by serial dilution in a 96 well plate and spot plating onto Muller-Hinton agar (MHA). MHA plates were incubated at 37° C. for 24 h and counted. Results are presented as CFU per mL.
(§6) To determine MBC compound concentrations, breakpoints were estimated from MIC curves. Overnight cultures were set up as described above for all bacterial strains. The following day overnight cultures were adjusted to give a cell density of 5×10^5 cells per mL. Briefly, cultures were adjusted to the McFarland standard (0.08-0.12) and diluted (1:150). Adjusted cultures were inoculated into 96 well plates with 50 μL sterile Muller-Hinton broth (MHB) and 2 concentrations of each compound. […] MBC cultures were quantified by serial dilution in a 96 well plate and spot plating onto Muller-Hinton agar (MHA). MHA plates were incubated at 37° C. for 24 hours and counted.
(§7) These compounds were tested for their MBC against a panel of ATCC and nosocomial bacteria.
Series [8] has as its system Enterococcus faecalis EF51299. As to the kind of experiment: MBC, spot plating after 24 h in MH broth. The settings on record: Table 18; —: no activity observed.
Protocol: as §5
(§8) To determine MBC compound concentrations, breakpoints were estimated from MIC curves. Overnight cultures were set up as described above for all bacterial strains. The following day overnight cultures were adjusted to give a cell density of 5×10^5 cells per mL. Briefly, cultures were adjusted to the McFarland standard (0.08-0.12) and diluted (1:150). Adjusted cultures were inoculated into 96 well plates with 50 μL sterile Muller-Hinton broth (MHB) and 2 concentrations of each compound. […] MBC cultures were quantified by serial dilution in a 96 well plate and spot plating onto Muller-Hinton agar (MHA). MHA plates were incubated at 37° C. for 24 hours and counted. […]
Series [9] deals with Staphylococcus aureus MR1. As to the kind of experiment: MBC, spot plating after 24 h in MH broth. The settings on record: Table 18; —: no activity observed.
Protocol: as §5, §6, §7
In series [10] the test system is Klebsiella pneumoniae KL1. The series can be described thus: MBC, spot plating after 24 h in MH broth. The settings on record: Table 18; —: no activity observed.
Protocol: as §5, §8
Series [11] relates to Primary Human Dermal Fibroblast (HDFs). As to the kind of experiment: LDH cytotoxicity assay, HDF. It counts as cell-based. The settings on record: Table 16, summarized cell toxicity values. How it is done:
as §1
(§3) Mammalian cell populations were maintained in standard culture conditions at 37° C., 5% CO2 and >95% relative humidity. Upon reaching 80% total confluency, cells were removed from the incubator, the culture media aspirated, and the monolayer washed with Dulbecco's […] (DPBS). After washing, 10 mL of 1% trypsin (GIBCO™) was added to the flask and incubated to facilitate the detachment of cells from the culture vessel. Following dissociation, 10 mL of culture media was then added to each flask to neutralize the trypsin enzyme activity. The total 20-mL flask volume was transferred into a universal tube and centrifuged at 400 rcf for 5 minutes. Once complete, the pellet of cells was re-suspended in 10 mL warmed culture media and the number of cells per mL was determined using a hemocytometer counting chamber. Cell suspensions were then adjusted to 5×10^4 cells/mL for HDFs and 1×10^5 cells/mL for HaCaTs. 100 μL of the cell suspension was added to each well of a sterile, cell-culture-treated 96-well microtiter plate. The plates were incubated in standard culture conditions for 16-24 hours to allow cellular adherence to the culture vessel. […] Culture plates were removed from the incubator, the media removed; and monolayers washed with 100 μL of warmed DPBS. The contents of the test item dilution plates were transferred to the culture plates. […]
as §2
(§4) Following incubation with the selected compounds, 50 μL of media from each well was transferred to the corresponding well of a fresh 96 well culture plate. The presence of Lactate dehydrogenase (LDH) was then quantified using the INVITROGEN™ CyQUANT™ LDH Cytotoxicity Assay, fluorescence kit. Total fluorescence was measured by reading the plates on a plate reader at an excitation of 560 nm and an emission of 590 nm. […]

Series [12] concerns Staphylococcus aureus ATCC 29213. The series can be described thus: MBC, spot plating after 24 h in MH broth. The settings on record: Table 18; —: no activity observed.
Protocol: as §5, §6, §7
Series [13] has as its system Staphylococcus aureus MR1. The series can be described thus: MIC, broth microdilution in MH broth with resazurin. It is filed as cell-based. The settings on record: Table 17; modified Gompertz fit; only values marked ^ are reliable estimates, others unreliable.
Series [14] concerns Pseudomonas aeruginosa 27853. The series is described as above. It is filed as cell-based. The settings on record: Table 17; modified Gompertz fit; only values marked ^ are reliable estimates, others unreliable.
Series [15] has as its system Escherichia coli EC25922. Described as above. It is filed as cell-based. The settings on record: Table 17; modified Gompertz fit; only values marked ^ are reliable estimates, others unreliable.
Series [16] relates to Enterococcus faecalis EF19433. As to the kind of experiment: MBC, spot plating after 24 h in MH broth. The settings on record: Table 18; —: no activity observed.
Protocol: as §5, §6, §7
For series [17], the system named is Human Keratinocyte (HaCaT) cells. The series can be described thus: LDH cytotoxicity assay, HaCaT. It counts as cell-based. The settings on record: Table 16, summarized cell toxicity values. How it is done:
as §1, §3, §2, §4

Series [18] deals with Klebsiella pneumoniae KL1. As to the kind of experiment: MIC, broth microdilution in MH broth with resazurin. It counts as cell-based. The settings on record: Table 17; modified Gompertz fit; only values marked ^ are reliable estimates, others unreliable.

In brackets after ≈: the same amount, converted by molar mass. Marks after values point to notes of the source that are not given here.

In the case of `CCCCCCCCCCCCCCCCCC[N+](C)(C)CCOCCO.[Br-]` [Compound 39637], the “antimicrobial activity towards the gram +ve species Enterococcus faecalis and Staphylococcus aureus (in words)” value in series [1] is recorded as “strong antimicrobial activity”. Also, the “concentration with almost total/complete absence of viable cells” value in [2] (HDF and HaCaT) came out at 6.3 µM. Further, the “concentration at which LDH secretion began to rapidly exceed control levels” value in [2] (HDF and HaCaT populations) was 3.12 µM. In addition, the “Ig(CFU/wound site) 24 h p.i.” value in the series on S. aureus NRS 384 (Study I, 100 μM, once a day) was 8.49 ± 0.30 Ig(CFU/wound site); in the series on S. aureus NRS 384 (Study II, 300 μM, once a day) it was 8.90 ± 0.10 Ig(CFU/wound site); with S. aureus NRS 384 (Study II, 1000 μM, once a day), 5.81 ± 1.79 Ig(CFU/wound site). For the same molecule, the “ΔIg(CFU/wound site) vs 12 h infection control” value with S. aureus NRS 384 (Study I, 100 μM, once a day) is recorded as −0.23 ± 0.06 Ig(CFU/wound site); with S. aureus NRS 384 (Study II, 300 μM, once a day) it was −0.45 ± 0.40 Ig(CFU/wound site); with S. aureus NRS 384 (Study II, 1000 μM, once a day) it was −3.15 ± 0.94 Ig(CFU/wound site). In addition, the “ΔIg(CFU/wound site) vs 24 h infection control” value is −0.29 ± 0.30 Ig(CFU/wound site) in the series on S. aureus NRS 384 (Study I, 100 μM, once a day); 0.04 ± 0.10 Ig(CFU/wound site) in the series with S. aureus NRS 384 (Study II, 300 μM, once a day); −3.06+1.79** Ig(CFU/wound site) with S. aureus NRS 384 (Study II, 1000 μM, once a day). The “Ig(CFU/wound site) 12 h p.i.” value with S. aureus NRS 384 (Study I, 100 μM, once a day from 5 min p.i., inoculum 4.20E+06 CFU/wound site) is recorded as 8.35 ± 0.06 Ig(CFU/wound site); in the series with S. aureus NRS 384 (Study II, 300 μM, once a day, inoculum 2.50E+06 CFU/wound site), 8.14 ± 0.40 Ig(CFU/wound site); in the series on S. aureus NRS 384 (Study II, 1000 μM, once a day) it was 5.44 ± 0.94 Ig(CFU/wound site).
With `CC(=O)O[C@H]1C[C@@]2(C)[C@@H](C[C@@H](O)[C@H]3[C@@]4(C)CC[C@@H](O)[C@@H](C)[C@@H]4CC[C@@]32C)/C1=C(\CCC=C(C)C)C(=O)O` [fusidic acid], the MIC turned out to be 5 µM (≈ 2.58 µg/mL) in series [3] (Table 21 (Example 8), Enterococcus faecalis EF19433, read-out: MIC Concentration); 5 µM (≈ 2.58 µg/mL) in series [4] (Table 21 (Example 8), Enterococcus faecalis EF51299, read-out: MIC Concentration); 0.04 µM (≈ 0.0207 µg/mL) in series [5]; 0.04 µM (≈ 0.0207 µg/mL) in [6] (ATCC29213, Table 21 (Example 8), Staphylococcus aureus 29213, read-out: MIC Concentration).
Turning to `CCCCCCCCCCCCCCCCCC[N+](C)(C)CCOCCO.[Br-]` [Compound 39637_109466], the “MBC EC25922” value against Escherichia coli EC25922 [7] stood at 25 µM. In addition, the “MBC EF51299” value in series [8] came out at 1.57 µM. Further, the “MBC MR1” value in [9] was 6.25 µM. Also, the “MBC KL1” value in series [10] was 50 µM. Besides, in series [11], the “Mammalian Cell Cytotoxicity, HDF” value came to 6.3 µM. Also, the “MBC SA29213” value in series [12] was found to be 1.57 µM. Besides, the “MIC MR1” value in series [13] was 10.78^ μM. Also, in series [3], the “MIC EF19433” value is listed as 2.59^ μM. Moreover, the “MIC PA27853” value in [14] is given as 62.14^ μM. The “MIC EC25922” value with Escherichia coli EC25922 [15] is 59.94 µM. Besides, the “MBC EF19433” value in [16] worked out at 1.57 µM. For the same molecule, in [17], the “Mammalian Cell Cytotoxicity, HaCaT” value was 6.3 µM. For the same molecule, in series [4], the “MIC EF51299” value is listed as 16.81^ μM. Also, in [6], the “MIC SA29213” value was 3.05 µM. Besides, in series [18], the “MIC KL1” value was 2.06 µM.
For the molecule `CCCCCCCCCCCC[N+](C)(C)CCOCCO.[Br-]` [Compound 40597_109444], the “Mammalian Cell Cytotoxicity, HDF” value in [11] came to 100 µM. For the same molecule, in series [13], the “MIC MR1” value is 0.94 µM. Moreover, the “MIC EF19433” value in series [3] was 1.63^ μM. Moreover, in series [14], the “MIC PA27853” value is 2.84 µM. The “Mammalian Cell Cytotoxicity, HaCaT” value in series [17] amounted to 100 µM. In series [4], the “MIC EF51299” value is 27.19^ μM. The “MIC KL1” value in series [18] was 0.01 µM.
On to `CCCCCCCCCCCCCCCCCC[N+](C)(C)CCOCCO.[Br-]` [Compound 39637_105543], for which the “MBC EC25922” value against Escherichia coli EC25922 [7] turned out to be 25 µM. In [9], the “MBC MR1” value was 6.25 µM. Further, the “Mammalian Cell Cytotoxicity, HDF” value in series [11] came out at 6.3 µM. In [12], the “MBC SA29213” value was 1.57 µM. Further, the “MIC MR1” value in [13] was 10.58^ μM. Further, the “MIC EF19433” value in [3] is 3.20^ μM. The “MIC PA27853” value in [14] was 53.54 µM. Moreover, the “MIC EC25922” value with Escherichia coli EC25922 [15] is 42.96 µM. Further, in series [16], the “MBC EF19433” value is 1.57 µM. For the same molecule, the “Mammalian Cell Cytotoxicity, HaCaT” value in series [17] was determined as 6.3 µM. Also, the “MIC EF51299” value in [4] is on record as 62.65^ μM. In addition, in series [6], the “MIC SA29213” value was 3.16 µM. Also, the “MIC KL1” value in series [18] is given as “+infinity”.
With `CCCCCC[N+](C)(C)CCOCCO.[Br-]` [Compound 40598_109448], the “Mammalian Cell Cytotoxicity, HDF” value in [11] was >100 µM. Also, the “MIC EF19433” value in series [3] was “Unstable”. For the same molecule, the “MIC PA27853” value in series [14] was 0.06 µM. In addition, in the series with Escherichia coli EC25922 [15], the “MIC EC25922” value is 0.83 µM. In series [17], the “Mammalian Cell Cytotoxicity, HaCaT” value is >100 µM. Moreover, in series [6], the “MIC SA29213” value is 1.93 µM. In [18], the “MIC KL1” value was 48.98 µM.

The record behind these values is patent US12616716B2, “Wound healing dressings and formulations and methods of use thereof” (Polaroid IP B.V., priority 2023, dated 2026).
